Test results: patent US10206937B2, “Boronic acid derivatives and therapeutic uses thereof” (Qpex Biopharma, Inc., priority 2014, dated 2019)

Test system: strains of Enterobacteriaceae producing various carbapenemases (class A, D and B; 104 strains)
Assay: Antibiotics potentiation by Compound 27 (MIC; meropenem, doripenem, ertapenem, cefepime)
Type: cell-based
Conditions: + 27 = with Compound 27 at fixed 4 μg/ml

## COc1ccc2c(c1C(=O)O)OB(O)C(Sc1nnc(N)s1)C2 (centres unmarked) [D + 27]
Strain CF1012 Citrobacter freundii (KPC-2)
  MIC: X (MIC of less than 1 μg/mL)
Strain CF1021 Citrobacter freundii (CMY-type; VIM-1)
  MIC: X (MIC of less than 1 μg/mL)
Strain CF1022 Citrobacter freundii (SHV-12(2be), TEM-OSBL(2b); IMP-8)
  MIC: X (MIC of less than 1 μg/mL)
Strain CF1023 Citrobacter freundii (SHV-12(2be), TEM-OSBL(2b); CTX-M-3; CMY-34; NDM-1)
  MIC: X (MIC of less than 1 μg/mL)
Strain CL1080 Enterobacter cloacae (IMP-1)
  MIC: X (MIC of less than 1 μg/mL)
Strain EA1019 Enterobacter aerogenes (SHV-5, VIM-1)
  MIC: X (MIC of less than 1 μg/mL)
Strain EC1007 Escherichia coli (KPC-3)
  MIC: X (MIC of less than 1 μg/mL)
Strain EC1061 Escherichia coli (NDM-1, CMY-6)
  MIC: X (MIC of less than 1 μg/mL)
Strain EC1062 Escherichia coli (OXA-48, CTX-M-15)
  MIC: X (MIC of less than 1 μg/mL)
Strain EC1064 Escherichia coli (NDM-1, CMY-6, CTX-M-15)
  MIC: Y (MIC of 1 μg/mL to 10 μg/mL)
Strain EC1065 Escherichia coli (IMP-1)
  MIC: X (MIC of less than 1 μg/mL)
Strain EC1068 Escherichia coli (VIM-1)
  MIC: X (MIC of less than 1 μg/mL)
Strain EC1069 Escherichia coli (CTX-M-27; NDM-1)
  MIC: X (MIC of less than 1 μg/mL)
Strain EC1070 Escherichia coli (TEM-OSBL(2b); CMY-42; NDM-5)
  MIC: X (MIC of less than 1 μg/mL)
Strain EC1072 Escherichia coli (CTX-M-3; NDM-1)
  MIC: X (MIC of less than 1 μg/mL)
Strain ECL1004 Enterobacter cloacae (NMC-A)
  MIC: X (MIC of less than 1 μg/mL)
Strain ECL1026 Enterobacter cloacae (KPC-2, TEM-1)
  MIC: X (MIC of less than 1 μg/mL)
Strain ECL1036 Enterobacter cloacae (KPC-3, TEM-1)
  MIC: X (MIC of less than 1 μg/mL)
Strain ECL1045 Enterobacter cloacae (VIM-1)
  MIC: Y (MIC of 1 μg/mL to 10 μg/mL)
Strain ECL1055 Enterobacter cloacae (KPC-3, TEM)
  MIC: X (MIC of less than 1 μg/mL)
Strain ECL1057 Enterobacter cloacae (NDM-1, TEM-1, CTX-M-15)
  MIC: Z (MIC of greater than 10 μg/mL)
Strain ECL1058 Enterobacter cloacae (KPC-3, SHV-11, TEM-1)
  MIC: X (MIC of less than 1 μg/mL)
Strain ECL1059 Enterobacter cloacae (KPC-3, SHV-12, TEM-1)
  MIC: X (MIC of less than 1 μg/mL)
Strain ECL1061 Enterobacter cloacae (KPC-3, Hyper AmpC expression)
  MIC: X (MIC of less than 1 μg/mL)
Strain ECL1082 Enterobacter cloacae (VIM-1)
  MIC: X (MIC of less than 1 μg/mL)
Strain ECL1084 Enterobacter cloacae (CTX-M-15; ACT-16; NDM-1)
  MIC: X (MIC of less than 1 μg/mL)
Strain ECL1085 Enterobacter cloacae (SHV-31(2be), TEM-1(2b); CTX-M-15; NDM-1)
  MIC: X (MIC of less than 1 μg/mL)
Strain ECL1086 Enterobacter cloacae (VIM-31, OXA-48(c))
  MIC: X (MIC of less than 1 μg/mL)
Strain ECL1087 Enterobacter cloacae (VIM-1)
  MIC: X (MIC of less than 1 μg/mL)
Strain ECL1088 Enterobacter cloacae (TEM-1(2b); CTX-M-14; ACT-type; VIM-1)
  MIC: X (MIC of less than 1 μg/mL)
Strain ECL1089 Enterobacter cloacae (ACT-type; IMP-1)
  MIC: Y (MIC of 1 μg/mL to 10 μg/mL)
Strain ECL1090 Enterobacter cloacae (TEM-1(2b); CTX-M-22; ACT-type; IMP-8)
  MIC: X (MIC of less than 1 μg/mL)
Strain ECL1091 Enterobacter cloacae (VIM-1)
  MIC: Y (MIC of 1 μg/mL to 10 μg/mL)
Strain ECL1092 Enterobacter cloacae (TEM-OSBL(2b); ACT-32; VIM-1)
  MIC: X (MIC of less than 1 μg/mL)
Strain ECL1093 Enterobacter cloacae (TEM-OSBL(2b); ACT-32; VIM-1)
  MIC: X (MIC of less than 1 μg/mL)
Strain ECL1094 Enterobacter cloacae (VIM-1)
  MIC: X (MIC of less than 1 μg/mL)
Strain ECL1096 Enterobacter cloacae (CMY-4, VIM-4, OXA-48(c))
  MIC: X (MIC of less than 1 μg/mL)
Strain ECL1097 Enterobacter cloacae (SHV-31(2be), TEM-OSBL(2b); CTX-M-15; ACT-31; NDM-1)
  MIC: X (MIC of less than 1 μg/mL)
Strain ECL1098 Enterobacter cloacae (TEM-OSBL(2b); DHA-1; ACT-16; NDM-1)
  MIC: X (MIC of less than 1 μg/mL)
Strain KP1001 Klebsiella pneumoniae (KPC TEM SHV)
  MIC: Y (MIC of 1 μg/mL to 10 μg/mL)
Strain KP1002 Klebsiella pneumoniae (KPC TEM SHV)
  MIC: X (MIC of less than 1 μg/mL)
Strain KP1003 Klebsiella pneumoniae (KPC TEM SHV)
  MIC: X (MIC of less than 1 μg/mL)
Strain KP1004 Klebsiella pneumoniae (KPC-2, TEM-1, SHV-11)
  MIC: X (MIC of less than 1 μg/mL)
Strain KP1008 Klebsiella pneumoniae (KPC-2)
  MIC: X (MIC of less than 1 μg/mL)
Strain KP1014 Klebsiella pneumoniae (VIM-1, TEM, SHV)
  MIC: Y (MIC of 1 μg/mL to 10 μg/mL)
Strain KP1054 Klebsiella pneumoniae (VIM-1, SHV-11)
  MIC: X (MIC of less than 1 μg/mL)
Strain KP1059 Klebsiella pneumoniae (VIM-1, SHV-11)
  MIC: Y (MIC of 1 μg/mL to 10 μg/mL)
Strain KP1061 Klebsiella pneumoniae (KPC-3, SHV-11, TEM-1)
  MIC: X (MIC of less than 1 μg/mL)
Strain KP1064 Klebsiella pneumoniae (KPC-2, SHV-11, TEM-1)
  MIC: Y (MIC of 1 μg/mL to 10 μg/mL)
Strain KP1065 Klebsiella pneumoniae (VIM-1, SHV-11)
  MIC: X (MIC of less than 1 μg/mL)
Strain KP1070 Klebsiella pneumoniae (KPC-2, SHV-11, TEM-1)
  MIC: X (MIC of less than 1 μg/mL)
Strain KP1074 Klebsiella pneumoniae (KPC-3, SHV-11, TEM)
  MIC: Y (MIC of 1 μg/mL to 10 μg/mL)
Strain KP1081 Klebsiella pneumoniae (NDM-1, TEM-1, SHV-11, CMY-6, CTX-M-15)
  MIC: X (MIC of less than 1 μg/mL)
Strain KP1082 Klebsiella pneumoniae (KPC-2, SHV-1)
  MIC: X (MIC of less than 1 μg/mL)
Strain KP1083 Klebsiella pneumoniae (KPC-3, SHV-1, TEM-1)
  MIC: X (MIC of less than 1 μg/mL)
Strain KP1084 Klebsiella pneumoniae (KPC-3, SHV-11, TEM-1)
  MIC: Y (MIC of 1 μg/mL to 10 μg/mL)
Strain KP1086 Klebsiella pneumoniae (OXA-48, CTX-M-15, TEM, SHV)
  MIC: Y (MIC of 1 μg/mL to 10 μg/mL)
Strain KP1087 Klebsiella pneumoniae (KPC-2, CTX-M-15, SHV-11, TEM-1)
  MIC: Y (MIC of 1 μg/mL to 10 μg/mL)
Strain KP1088 Klebsiella pneumoniae (KPC-3, SHV-11, TEM-1)
  MIC: X (MIC of less than 1 μg/mL)
Strain KP1089 Klebsiella pneumonias (OXA-181, CTX-M-15, TEM, SHV)
  MIC: X (MIC of less than 1 μg/mL)
Strain KP1095 Klebsiella pneumoniae (KPC-2 TEM-1 SHV-1)
  MIC: X (MIC of less than 1 μg/mL)
Strain KP1096 Klebsiella pneumoniae (KPC-2 TEM-181 SHV-11)
  MIC: X (MIC of less than 1 μg/mL)
Strain KP1097 Klebsiella pneumonias (IMP-1)
  MIC: X (MIC of less than 1 μg/mL)
Strain KP1098 Klebsiella pneumoniae (IMP-26)
  MIC: Y (MIC of 1 μg/mL to 10 μg/mL)
Strain KP1104 Klebsiella pneumoniae (KPC TEM)
  MIC: X (MIC of less than 1 μg/mL)
Strain KP1105 Klebsiella pneumoniae (KPC TEM SHV)
  MIC: X (MIC of less than 1 μg/mL)
Strain KP1159 Klebsiella pneumoniae (SHV-1(2b); CTX-M-15; IMP-4)
  MIC: X (MIC of less than 1 μg/mL)
Strain KP1160 Klebsiella pneumoniae (SHV-28(2be); CTX-M-15; IMP-26)
  MIC: X (MIC of less than 1 μg/mL)
Strain KP1161 Klebsiella pneumoniae (NDM-1)
  MIC: X (MIC of less than 1 μg/mL)
Strain KP1164 Klebsiella pneumoniae (SHV-12(2be); VIM-1)
  MIC: X (MIC of less than 1 μg/mL)
Strain KP1165 Klebsiella pneumoniae (SHV-11(2b); CTX-M-15; VIM-27)
  MIC: Z (MIC of greater than 10 μg/mL)
Strain KP1166 Klebsiella pneumoniae (SHV-5(2be); VIM-26)
  MIC: Y (MIC of 1 μg/mL to 10 μg/mL)
Strain KP1167 Klebsiella pneumoniae (SHV-12(2be); VIM-1)
  MIC: X (MIC of less than 1 μg/mL)
Strain KP1169 Klebsiella pneumoniae (SHV-11(2b); VIM-1)
  MIC: X (MIC of less than 1 μg/mL)
Strain KP1170 Klebsiella pneumoniae (SHV-11(2b); CTX-M-15; NDM-1)
  MIC: X (MIC of less than 1 μg/mL)
Strain KP1172 Klebsiella pneumoniae (SHV-31(2be); DHA-1; VIM-1)
  MIC: X (MIC of less than 1 μg/mL)
Strain KP1173 Klebsiella pneumoniae (TEM-33(2br); CTX-M-15; IMP-1)
  MIC: X (MIC of less than 1 μg/mL)
Strain KP1174 Klebsiella pneumoniae (CTX-M-14; IMP-1)
  MIC: X (MIC of less than 1 μg/mL)
Strain KP1175 Klebsiella pneumoniae (SHV-OSBL(2b); VIM-1)
  MIC: X (MIC of less than 1 μg/mL)
Strain KP1177 Klebsiella pneumoniae (SHV-OSBL(2b), TEM-OSBL(2b); CTX-M-15; NDM-1)
  MIC: X (MIC of less than 1 μg/mL)
Strain KP1178 Klebsiella pneumoniae (SHV-OSBL(2b;) TEM-OSBL(2b); CTX-M-15; NDM-1)
  MIC: X (MIC of less than 1 μg/mL)
Strain KP1179 Klebsiella pneumoniae (SHV-12(2be), TEM-OSBL(2b); CTX-M-15; NDM-7)
  MIC: X (MIC of less than 1 μg/mL)
Strain KP1180 Klebsiella pneumoniae (SHV-OSBL(2b), TEM-OSBL(2b); CTX-M-15; DHA-1; IMP-26)
  MIC: X (MIC of less than 1 μg/mL)
Strain KP1181 Klebsiella pneumoniae (SHV-OSBL(2b); CTX-M-15; IMP-26)
  MIC: X (MIC of less than 1 μg/mL)
Strain KP1183 Klebsiella pneumoniae (SHV-OSBL(2b), TEM-OSBL(2b); CTX-M-15; NDM-1)
  MIC: X (MIC of less than 1 μg/mL)
Strain KP1184 Klebsiella pneumoniae (SHV-OSBL(2b); IMP-1)
  MIC: X (MIC of less than 1 μg/mL)
Strain KP1185 Klebsiella pneumoniae (SHV-OSBL(2b), TEM-OSBL(2b); IMP-4)
  MIC: X (MIC of less than 1 μg/mL)
Strain KP1186 Klebsiella pneumoniae (CTX-M-15; NDM-1)
  MIC: X (MIC of less than 1 μg/mL)
Strain KP1187 Klebsiella pneumoniae (SHV-55(2be), TEM-OSBL(2b); CTX-M-15; NDM-1)
  MIC: X (MIC of less than 1 μg/mL)
Strain KP1188 Klebsiella pneumoniae (SHV-OSBL(2b); CTX-M-15; NDM-1)
  MIC: Y (MIC of 1 μg/mL to 10 μg/mL)
Strain KP1189 Klebsiella pneumoniae (TEM-OSBL(2b); CTX-M-15; CTX-M-27; NDM-1)
  MIC: X (MIC of less than 1 μg/mL)
Strain KPM1123 Klebsiella pneumoniae (KPC-2 TEM SHV)
  MIC: X (MIC of less than 1 μg/mL)
Strain KPM1202 Klebsiella pneumoniae (KPC SHV TEM)
  MIC: X (MIC of less than 1 μg/mL)
Strain KPM1203 Klebsiella pneumoniae (KPC SHV TEM)
  MIC: X (MIC of less than 1 μg/mL)
Strain KPM1344 Klebsiella pneumoniae (VIM-1)
  MIC: X (MIC of less than 1 μg/mL)
Strain KPM1345 Klebsiella pneumoniae (VIM-1 SHV)
  MIC: X (MIC of less than 1 μg/mL)
Strain KPM1347 Klebsiella pneumoniae (NDM-1 SHV CTX-M-15)
  MIC: X (MIC of less than 1 μg/mL)
Strain KX1017 Klebsiella oxytoca (KPC-2, OXA-2, SHV-30)
  MIC: X (MIC of less than 1 μg/mL)
Strain KX1018 Klebsiella oxytoca (KPC-2, SHV-40, OXY-1)
  MIC: X (MIC of less than 1 μg/mL)
Strain KX1019 Klebsiella oxytoca (KPC-2, OXA-2)
  MIC: X (MIC of less than 1 μg/mL)
Strain PM1024 Proteus mirabilis (TEM-1(2b); CMY-16; VIM-1)
  MIC: X (MIC of less than 1 μg/mL)
Strain PM1026 Proteus mirabilis (DHA-1; IMP-26)
  MIC: Y (MIC of 1 μg/mL to 10 μg/mL)
Strain PM1027 Proteus mirabilis (VIM-5)
  MIC: X (MIC of less than 1 μg/mL)
Strain SM1023 Serratia marcescens (VIM-4)
  MIC: Y (MIC of 1 μg/mL to 10 μg/mL)
